Experimental data: patent US5405843A, “Quinoline derivatives” (Mitsui Toatsu Chemicals, Incorporated, priority 1988, dated 1995)

System: Adriamycin resistant strain 2780 AD cells of human ovarian cancer A2780 cells
Assay: Potentiating effect on incorporation of 3H-vincristine into adriamycin-resistant cancer cells
Type: cell-based
Conditions: 20 nM 3H-vincristine; for activity at 1 µg/mL / activity at 10 µg/mL: Homo sapiens, 2780AD, 2 h, control = 100, read-out: 3H-vincristine accumulation; for activity at 10 µg/mL: compound 10 μg/ml
Description: Potentiating Effect of the Compounds on Incorporation of Anticancer Drugs into Drug-resistant Cancer Cells
Adriamycin resistant strain 2780 AD cells of human ovarian cancer A2780 cells (A. M. Rogan et al., Science 224, 994-996, 1984) were suspended at a concentration of 1×10^6 /ml in RPMI-1640 medium supplemented with 5% fetal calf serum, and 1 ml of the cancer cell suspension was dispensed into each well of a multi-well culture plate (24 wells, […] in diameter) and then incubated at 37° C. in an atmosphere of 5% CO2. After 24 hours incubation, the medium in each well was replaced by 0.5 ml of RPMI-1640 medium supplemented containing 20 nM ^3 H-vincristine (1×10^4 dpm/pmol), 5% fetal calf serum and 10 mM Hepes buffer. Five microliters of a solution of the compound to be tested, which had been dissolved in DMSO and diluted with […] (at a concentration of 1.0 microgram/ml or 10.0 micrograms/ml), was added to each well and the incubation was continued at 37° C. in 5% CO2 for 2 hours. The resultant cells were washed in cold saline-phosphate buffer. In each well was added 0.5 ml of 0.2N NaOH, and the resulting cell suspension in each well was independently transferred into a vial and then heated in a water bath at 56° C. for 30-60 minutes to dissolve the cells. After adding 4 ml of acid aquazole 2, the amount of ^3 H-vincristine incorporated into the cells was determined by a fluid scintillation counter.

| Structure (SMILES) | activity at 1 µg/mL (compound 1 μg/ml) [%] | activity at 10 µg/mL [%] | 3H-vincristine accumulation (compound 1 μg/ml, 2 hours, control = 100, 120 min) [%] |
| --- | --- | --- | --- |
| OC(COc1cccc2ncccc12)CN1CCC(C(c2ccccc2)c2ccccc2)CC1 (stereo not shown) [Example 14, 5-[3-(4-(Diphenylmethyl)piperidine-1-yl)-2-hydroxypropoxy]quinoline] | 119 | 871 |  |
| OC(COc1cccc2nc(Cl)ccc12)CN1CCC(C(O)(c2ccccc2)c2ccccc2)CC1 (stereo not shown) [Example 19, 5-[3-(4-(Diphenyl-hydroxymethyl)piperidine-1-yl)-2-hydroxypropoxy]-2-chloroquinoline] | 374 | 524 |  |
| Cc1ccc2ncccc2c1OCC(O)CN1CCN(C(c2ccccc2)c2ccccc2)CC1 (stereo not shown) [Example 23, 5-[3-(4-Diphenylmethylpiperazine-1-yl)-2-hydroxypropoxy]-6-methylguinoline] | 723 |  |  |
| Cc1ccc(OCC(O)CN2CCN(C(c3ccccc3)c3ccccc3)CC2)c2cccnc12 (stereo not shown) [Example 24, 5-[3-(4-Diphenylmethylpiperazine-1-yl)-2-hydroxypropoxy]-8-methylquinoline] | 146 | 931 |  |
| COc1ccc(OCC(O)CN2CCN(C(c3ccccc3)c3ccccc3)CC2)c2cccnc12 (stereo not shown) [Example 25, 5-[3-(4-Diphenylmethylpiperazine-1-yl)-2-hydroxypropoxy]-8-methoxyquinoline] | 858 |  |  |
| O=[N+]([O-])c1ccc(OCC(O)CN2CCN(C(c3ccccc3)c3ccccc3)CC2)c2cccnc12 (stereo not shown) [Example 26, 5-[3-(4-Diphenylmethylpiperazine-1-yl)-2-hydroxypropoxy]-8-nitroquinoline] | 177 |  |  |
| OC(COc1ccc(Cl)c2ncccc12)CN1CCN(C(c2ccccc2)c2ccccc2)CC1 (stereo not shown) [Example 29, 5-[3-(4-Diphenylmethylpiperazine-1-yl)-2-hydroxypropoxy]-8-chloroquinoline] | 246 |  |  |
| CN(CC(O)CN1CCN(C(c2ccccc2)c2ccccc2)CC1)c1cccc2ncccc12 (stereo not shown) [Example 30, N-[3-(4-Diphenylmethylpiperazine-1-yl)-2-hydroxypropyl]-N-methyl-5-quinolineamine] | 597 |  |  |
| OC(CSc1cccc2ncccc12)CN1CCN(C(c2ccccc2)c2ccccc2)CC1 (stereo not shown) [Example 31, 5-[3-(4-Diphenylmethylpiperazine-1-yl)-2-hydroxypropylthio]quinoline] |  | 799 | 428 |
| c1ccc(C(c2ccccc2)N2CCN(CCCCOc3cccc4ncccc34)CC2)cc1 [Example 33, 5-[4-(4-Diphenylmethylpiperazine-1-yl)butoxy]quinoline] | 447 |  |  |
| CN(C(=O)CCN1CCN(C(c2ccccc2)c2ccccc2)CC1)c1cccc2ncccc12 [Example 37, 5-[N-Methyl-(3-(4-diphenylmethylpiperazine-1-yl)propionamido)]quinoline] | 549 | 1000 |  |
| CN(C(=O)CCN1CCN(C2c3ccccc3CCc3ccccc32)CC1)c1cccc2ncccc12 [Example 38, 5-[N-methyl-(3-(4-dibenzosuberanylpiperazine-1-yl)-propionamide)]quinoline] | 378 | 819 |  |
| CC(=O)OC(CN1CCN(C(c2ccccc2)c2ccccc2)CC1)CN(C(C)=O)c1cccc2ncccc12 (stereo not shown) [Example 39, 5-[N-Acetyl-(2-acetoxy-3-(4-diphenylmethylpiperazine-1-yl)propylamino)]quinoline] | 236 | 908 |  |
| CC(=O)N(CC(O)CN1CCN(C(c2ccccc2)c2ccccc2)CC1)c1cccc2ncccc12 (stereo not shown) [Example 40, 5-[N-Acetyl-(3-(4-diphenylmethylpiperazine-1-yl)-2-hydroxypropylamino)]quinoline] | 259 |  |  |
| OC(COc1cccc2cnccc12)CN1CCN(C(c2ccccc2)c2ccccc2)CC1 (stereo not shown) [Example 43, 5-[3-(4-Diphenylmethylpiperazine-1-yl)-2-hydroxypropoxy]isoquinoline] | 531 |  |  |
| OC(COc1cccc2cnccc12)CN1CCCN(C(c2ccccc2)c2ccccc2)CC1 (stereo not shown) [Example 45, 5-[3-(4-Diphenylmethylhomopiperazine-1-yl)-2-hydroxypropoxy]isoquinoline] | 307 | 982 |  |
| OC(COc1ccnc2ccccc12)CN1CCN(C(c2ccccc2)c2ccccc2)CC1 (stereo not shown) [Example 46, 4-[3-(4-Diphenylmethylpiperazine-1-yl)-2-hydroxypropoxy]quinoline] | 142 | 987 |  |

| Structure (SMILES) | activity at 1 µg/mL (compound 1 μg/ml) [%] | activity at 10 µg/mL [%] | 3H-vincristine accumulation (compound 1 μg/ml, 2 hours, control = 100, 120 min) [%] |
| --- | --- | --- | --- |
| OC(COc1cccc2ccncc12)CN1CCN(C(c2ccccc2)c2ccccc2)CC1 (stereo not shown) [Example 47, 8-[3-(4-Diphenylmethylpiperazine-1-yl)-2-hydroxypropoxy]isoquinoline] | 322 | 879 |  |
| OC(COc1nccc2ccccc12)CN1CCN(C(c2ccccc2)c2ccccc2)CC1 (stereo not shown) [Example 48, 1-[3-(4-Diphenylmethylpiperazine-1-yl)-2-hydroxypropoxy]isoquinoline] | 215 | 798 |  |
| OC(COc1cccc2cccnc12)CN1CCN(C(c2ccccc2)c2ccccc2)CC1 (stereo not shown) [Example 49, 8-[3-(4-Diphenylmethylpiperazine-1-yl)-2-hydroxypropoxy]-quinoline] | 213 | 612 |  |
| OC(COc1cccc2nccnc12)CN1CCN(C(c2ccccc2)c2ccccc2)CC1 (stereo not shown) [Example 50, 5-[3-(4-Diphenylmethylpiperazine-1-yl)-2-hydroxypropoxy]quinoxaline] | 559 | 668 |  |
| OC(COc1cccc2ncncc12)CN1CCN(C(c2ccccc2)c2ccccc2)CC1 (stereo not shown) [Example 51, 5-[3-(4-Diphenylmethylpiperazine-1-yl)-2-hydroxypropoxy]quinazoline] | 534 | 798 |  |
| OC(COc1cccc2ncccc12)CN1CCN(C(c2ccccc2)c2ccncc2)CC1 (stereo not shown) [Example 52, 5-(3-[4-((4-Pyridyl) -phenylmethyl)piperazine-1-yl]-2-hydroxypropoxy)quinoline] | 379 | 910 |  |
| Cc1cc(C(F)(F)F)nc2cccc(OCC(O)CN3CCN(C4c5ccccc5CCc5ccccc54)CC3)c12 (stereo not shown) [Example 54, 2-Trifluoromethyl-4-methyl-5-[3-(4-(dibenzosuberane-5-yl)piperazine-1-yl)-2-hydroxypropoxy]quinoline] | 253 | 777 |  |
| Cc1cc(C(F)(F)F)nc2cccc(OCC(O)CN3CCN(C(c4ccccc4)c4ccccc4)CC3)c12 (stereo not shown) [Example 56, 2-Trifluoromethyl-4-methyl-5-[3-(4-diphenylmethylpiperazine-1-yl)-2-hydroxypropoxy]quinoline] | 321 | 735 |  |
| OC(CNCCNC1c2ccccc2CCc2ccccc21)COc1cccc2ncccc12 (stereo not shown) [Example 62, 5-[3-(N'-(Dibenzosuberane-5-yl)ethylenediamino)-2-hydroxypropoxy]quinoline] | 525 |  |  |
| CN(CCN(C)C1c2ccccc2CCc2ccccc21)CC(O)COc1cccc2ncccc12 (stereo not shown) [Example 63] | 773 |  |  |
| CSc1ccc2c(OCC(O)CN3CCN(C4c5ccccc5CCc5ccccc54)CC3)cccc2n1 (stereo not shown) [Example 64, 2-Methylthio-5-[3-(4-(dibenzosuberane-5-yl)piperazine-1-yl)-2-hydroxypropoxy]quinoline] | 425 | 900 |  |
| CSc1ccc2c(OCC(O)CN3CCN(C(=O)C(c4ccccc4)c4ccccc4)CC3)cccc2n1 (stereo not drawn) [Example 65, 2-Methylthio-5-[3-(4-(α,α-diphenylacetyl)piperazine-1-yl)-2-hydroxypnopoxy]quinoline] | 297 | 985 |  |
| Cc1cc(C)c2c(OCC(O)CN(C)CCN(C)C3c4ccccc4CCc4ccccc43)cccc2n1 (stereo not shown) [Example 66, 2,4-Dimethyl-5-[3-(N,N'-dimethyl-N'-(dibenzosuberane-5-yl)ethylenediamino)-2-hydroxypropoxy]quinoline] | 488 |  |  |
| Cc1cc(C)c2c(OCC(O)CN3CCC(=C(c4ccccc4)c4ccccc4)CC3)cccc2n1 (stereo not shown) [Example 67, 2,4-Dimethyl-5-[3-(4-diphenylmethylenepiperizine-1-yl)-2-hydroxypropoxy]quinoline] | 730 |  |  |
| CN(CCC=C1c2ccccc2CCc2ccccc21)CC(O)COc1cccc2ncccc12 (stereo not shown) [Example 68, 5-(3[N-{3-dibenzosuberane-5-ylidene)propy}-N-methylamino-2-hydroxypropoxy)quinoline] | 671 |  |  |
| OC(CNCCC(c1ccccc1)c1ccccc1)COc1cccc2ncccc12 (stereo not shown) [Example 69, 5-[3-(3,3-Diphenylpropylamino)-2-hydroxypropoxy]quinoline] | 738 | 941 |  |
| OC(CNCC(c1ccccc1)c1ccccc1)COc1cccc2ncccc12 (stereo not shown) [Example 70, 5-[3-(2,2-Diphenylethylamino)-2-hydroxypropoxy]quinoline] | 252 | 960 |  |
